In patent US9316633B2, “Methods for identifying inhibitors of solute transporters” (The Regents of the University of California, priority 2006, dated 2016) one finds EC50 data, which are given here for 31 molecules.

For the first experiment, the target named is T1, UT-B (Homo sapiens, UniProt Q13336).
T1 construct: the indicator cells are red blood cells that endogenously express the UT-B urea transporter; endogenous in cells; host or cells: human red blood cells (whole venous blood, single donor)
T1 sequence (Q13336 1-389): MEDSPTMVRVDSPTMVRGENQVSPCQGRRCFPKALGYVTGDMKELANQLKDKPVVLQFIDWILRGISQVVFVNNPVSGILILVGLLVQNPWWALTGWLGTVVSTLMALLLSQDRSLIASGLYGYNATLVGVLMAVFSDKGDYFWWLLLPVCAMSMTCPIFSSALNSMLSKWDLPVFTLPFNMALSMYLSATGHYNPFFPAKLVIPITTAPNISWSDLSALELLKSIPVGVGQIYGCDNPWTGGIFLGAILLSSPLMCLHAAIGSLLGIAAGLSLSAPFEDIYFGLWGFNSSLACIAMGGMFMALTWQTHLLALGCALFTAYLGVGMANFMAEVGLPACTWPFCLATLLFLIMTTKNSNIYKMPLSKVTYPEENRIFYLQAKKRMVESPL
In words: RBC lysis assay, human RBCs loaded with acetamide. To be noted: Table 5, phthalazinamines; UT-B inhibitory potency. Format: cell-based.
The term EC50 denotes the concentration needed to bring the measured effect to its halfway point. The low end stands for an effect from little substance, the high end for a need for much substance. `CNS(=O)(=O)c1cc(-c2nnc(Nc3ccc(OCC(N)=O)cc3)c3ccccc23)ccc1C` [ureainh-325, 2-(4-(4-(4-methyl-3-(N-methylsulfamoyl)phenyl)phthalazin-1-ylamino)phenoxy)acetamide] had a half-maximal effective concentration (EC50) of 2000 nM. Molecule `Cc1ccc(-c2nnc(Nc3ccc(C(N)=O)cc3)c3ccccc23)cc1S(=O)(=O)N(C)C` [ureainh-321, 4-(4-(3-(N,N-dimethylsulfamoyl)-4-methylphenyl)phthalazin-1-ylamino) benzamide] registered an EC50 of 1000 nM. Molecule `CN(C)C(=O)c1ccc(Nc2nnc(-c3ccc(C(N)=O)cc3)c3ccccc23)cc1` [ureainh-303, 4-(4-(4-carbamoylphenyl)phthalazin-1-ylamino)-N,N-dimethylbenzamide] registered an EC50 of 200 nM. The molecule `Cc1ccc(-c2nnc(Oc3ccccc3)c3ccccc23)cc1` [ureainh-333, 1-phenoxy-4-p-tolylphthalazine] had an EC50 of 3000 nM.

The molecule `COC(=O)c1ccc(Nc2nnc(-c3ccc(C)c(S(=O)(=O)NCCO)c3)c3ccccc23)cc1` [ureainh-323, methyl 4-(4-(3-(N-(2-hydroxyethyl)sulfamoyl)-4-methylphenyl)phthalazin-1-ylamino) benzoate] gave a concentration for a half-maximal effect (EC50) of 2000 nM. The same measure, in the same setting: in the case of `CNC(=O)COc1ccc(Nc2nnc(-c3ccc(C)c(S(N)(=O)=O)c3)c3ccccc23)cc1` [ureainh-330, N-methyl-2-(4-(4-(4-methyl-3-sulfamoylphenyl)phthalazin-1-ylamino)phenoxy)acetamide] it was 10000 nM; in that of `Cc1ccc(-c2nnc(Nc3ccc(OCC(N)=O)cc3)c3ccccc23)cc1S(=O)(=O)N(C)C` [ureainh-322, 2-(4-(4-(3-(N,N-dimethylsulfamoyl)-4-methylphenyl)phthalazin-1-ylamino)phenoxy)acetamide], 2000 nM; in that of `Cc1ccc(-c2nnc(Nc3ccc(C(N)=O)cc3)c3ccccc23)cc1S(=O)(=O)NCCO` [ureainh-324, 4-(4-(3-(N-(2-hydroxyethyl)sulfamoyl)-4-methylphenyl)phthalazin-1-ylamino) benzamide], 5000 nM.

`COc1ccc(Nc2nnc(-c3ccccc3)c3ccccc23)cc1` [ureainh-320, N-(4-methoxyphenyl)-4-phenylphthalazin-1-amine] displayed a concentration for a half-maximal effect (EC50) of 4000 nM. On the same count and under the same terms, for `Cc1ccc(-c2nnc(Nc3ccc(O)cc3)c3ccccc23)cc1S(=O)(=O)N1CCOCC1` [ureainh-328, 4-(4-(4-methyl-3-(morpholinosulfonyl)phenyl)phthalazin-1-ylamino)phenol] the value was 3000 nM; for `CNC(=O)COc1ccc(Nc2nnc(-c3ccccc3)c3ccccc23)cc1` [ureainh-319, N-methyl-2-(4-(4-phenylphthalazin-1-ylamino)phenoxy)acetamide], 3000 nM. Same read-out and setting: for `NC(=O)COc1ccc(Nc2nnc(-c3ccccc3)c3ccccc23)cc1` [ureainh-318, 2-(4-(4-phenylphthalazin-1-ylamino)phenoxy) acetamide] the value was 2000 nM; for `CCN(CC)C(=O)c1ccc(-c2nnc(Nc3ccc(O)cc3)c3ccccc23)cc1` [ureainh-309, N,N-diethyl-4-(4-(4-hydroxyphenylamino)phthalazin-1-yl)benzamide], 5000 nM; for `CNC(=O)COc1ccc(Nc2nnc(-c3ccc(C)c(S(=O)(=O)NC)c3)c3ccccc23)cc1` [ureainh-326, N-methyl-2-(4-(4-(4-methyl-3-(N-methylsulfamoyl)phenyl)phthalazin-1-ylamino)phenoxy) acetamide], 2000 nM. The same measure, in the same setting: for `Cc1ccc(-c2nnc(Nc3ccc(O)cc3)c3ccccc23)cc1S(=O)(=O)NC(C)(C)CO` [ureainh-331, N-(1-hydroxy-2-methylpropan-2-yl)-5-(4-(4-hydroxyphenylamino)phthalazin-1-yl)-2-methylbenzenesulfonamide] the value was 9000 nM.

With `CNC(=O)COc1ccc(Nc2nnc(-c3ccc(C)cc3)c3ccccc23)cc1` [ureainh-315, N-methyl-2-(4-(4-p-tolylphthalazin-1-ylamino)phenoxy)acetamide], the EC50 stood at 2000 nM.

Staying with this experiment, now noted: Table 7, aminobenzimidazoles; UT-B inhibitory potency.
`CCn1c(NCc2cc(Cl)ccc2O)nc2ccccc21` [ureainh-402, 4-chloro-2-((1-ethyl-1H-benzo[d]imidazol-2-ylamino)methyl)phenol] returned a concentration for a half-maximal effect (EC50) of 400 nM.

The molecule `CCN(CC)CCn1c(NCc2ccccc2O)nc2ccccc21` [ureainh-407, 2-((1-(2-(diethylamino)ethyl)-1H-benzo[d]imidazol-2-ylamino)methyl)phenol] had an EC50 of 800 nM. Same read-out and setting: in the case of `CCCn1c(NCc2cc(C)ccc2O)nc2ccccc21` [ureainh-414, 4-methyl-2-((1-propyl-1H-benzo[d]imidazol-2-ylamino)methyl)phenol] it was 1000 nM. Still for that read-out and setting: for `CCn1c(NCc2cc(C)ccc2O)nc2ccccc21` [ureainh-416, 2-((1-ethyl-1H-benzo[d]imidazol-2-ylamino)methyl)-4-methylphenol] the value was 1000 nM; for `COc1ccc(O)c(CNc2nc3ccccc3n2C(C)C)c1` [ureainh-420, 2-((1-isopropyl-1H-benzo[d]imidazol-2-ylamino)methyl)-4-methoxyphenol], 3000 nM; for `CC(C)n1c(NCc2cc(Cl)ccc2O)nc2ccccc21` [ureainh-403, 4-chloro-2-((1-isopropyl-1H-benzo[d]imidazol-2-ylamino)methyl)phenol], 5000 nM. `CCCn1c(NCc2cc(OC)ccc2O)nc2ccccc21` [ureainh-418, 4-methoxy-2-((1-propyl-1H-benzo[d]imidazol-2-ylamino)methyl)phenol] showed a 50% effective concentration (EC50) of 6000 nM. Same read-out and setting: in the case of `CCn1c(NCc2cccc(OC)c2O)nc2ccccc21` [ureainh-422, 2-((1-ethyl-1H-benzo[d]imidazol-2-ylamino)methyl)-6-methoxyphenol] it was 11000 nM. On the same count and under the same terms, in the case of `CCCn1c(NCc2cc(Cl)ccc2O)nc2ccccc21` [ureainh-401, 4-chloro-2-((1-propyl-1H-benzo[d]imidazol-2-ylamino)methyl)phenol] it was 300 nM; in that of `CCCCn1c(NCc2cc(C)ccc2O)nc2ccccc21` [ureainh-417, 2-((1-butyl-1H-benzo[d]imidazol-2-ylamino)methyl)-4-methylphenol], 2000 nM. Still for that read-out and setting: for `CC(C)n1c(NCc2cc(Br)ccc2O)nc2ccccc21` [ureainh-405, 4-bromo-2-((1-isopropyl-1H-benzo[d]imidazol-2-ylamino)methyl)phenol] the value was 400 nM; for `C=CCn1c(NCc2cc(Br)ccc2O)nc2ccccc21` [ureainh-406, 2-((1-allyl-1H-benzo[d]imidazol-2-ylamino)methyl)-4-bromophenol], 1000 nM.

Molecule `CCn1c(NCc2c(O)ccc3ccccc23)nc2ccccc21` [ureainh-421, 1-((1-ethyl-1H-benzo[d]imidazol-2-ylamino)methyl)naphthalen-2-ol] registered a 50% effective concentration (EC50) of 3000 nM. Molecule `Oc1ccccc1CNc1nc2ccccc2n1CCN1CCCCC1` [ureainh-408, 2-((1-(2-(piperidin-1-yl)ethyl)-1H-benzo[d]imidazol-2-ylamino)methyl)phenol] showed an EC50 of 900 nM. On the same count and under the same terms, for `Cc1ccc(O)c(CNc2nc3ccccc3n2C(C)C)c1` [ureainh-415, 2-((1-isopropyl-1H-benzo[d]imidazol-2-ylamino)methyl)-4-methylphenol] the value was 1000 nM.
